Results: ChEMBL document CHEMBL5131517 (ACS Med Chem Lett, 2022)

Tests used:
[1] = biological target: Sodium-dependent serotonin transporter (Homo sapiens, UniProt P31645); test: Binding affinity to SERT receptor (unknown origin) assessed as inhibition constant
[2] = biological target: D(4) dopamine receptor (Homo sapiens, UniProt P21917); test: Binding affinity to D4 receptor (unknown origin) assessed as inhibition constant
[3] = biological target: 5-hydroxytryptamine receptor 3A (Homo sapiens) (UniProt P46098); test: Inhibition of 5HT3 receptor (unknown origin); conditions: concentration not given here
Sequence of 5-hydroxytryptamine receptor 3A (Homo sapiens) (P46098 whole entry): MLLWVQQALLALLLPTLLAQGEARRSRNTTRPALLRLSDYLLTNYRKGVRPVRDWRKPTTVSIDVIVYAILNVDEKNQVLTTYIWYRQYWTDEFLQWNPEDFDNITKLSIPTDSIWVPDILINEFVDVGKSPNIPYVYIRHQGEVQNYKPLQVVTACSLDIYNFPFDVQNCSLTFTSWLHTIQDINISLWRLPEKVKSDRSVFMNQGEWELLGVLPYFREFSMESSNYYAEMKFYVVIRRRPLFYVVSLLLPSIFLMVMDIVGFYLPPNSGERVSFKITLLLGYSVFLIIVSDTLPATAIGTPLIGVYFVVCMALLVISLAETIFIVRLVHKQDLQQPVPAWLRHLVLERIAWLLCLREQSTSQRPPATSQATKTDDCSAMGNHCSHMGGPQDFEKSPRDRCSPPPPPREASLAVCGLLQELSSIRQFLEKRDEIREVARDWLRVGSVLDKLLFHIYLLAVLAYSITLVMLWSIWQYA

[4] = biological target: Sigma non-opioid intracellular receptor 1 (Homo sapiens, UniProt Q99720); test: Inhibition of sigma 1 receptor (unknown origin); conditions: concentration not given here
Sequence of Sigma non-opioid intracellular receptor 1 (Q99720 whole entry): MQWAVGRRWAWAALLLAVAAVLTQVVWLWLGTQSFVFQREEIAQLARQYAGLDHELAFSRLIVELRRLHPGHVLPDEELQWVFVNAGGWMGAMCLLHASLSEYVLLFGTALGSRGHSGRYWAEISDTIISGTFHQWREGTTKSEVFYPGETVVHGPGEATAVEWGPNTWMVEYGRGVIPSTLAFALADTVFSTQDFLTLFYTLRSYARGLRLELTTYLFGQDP

[5] = biological target: D(3) dopamine receptor (Homo sapiens, UniProt P35462); test: Binding affinity to D3 receptor (unknown origin) assessed as inhibition constant
Sequence of D(3) dopamine receptor (P35462 whole entry): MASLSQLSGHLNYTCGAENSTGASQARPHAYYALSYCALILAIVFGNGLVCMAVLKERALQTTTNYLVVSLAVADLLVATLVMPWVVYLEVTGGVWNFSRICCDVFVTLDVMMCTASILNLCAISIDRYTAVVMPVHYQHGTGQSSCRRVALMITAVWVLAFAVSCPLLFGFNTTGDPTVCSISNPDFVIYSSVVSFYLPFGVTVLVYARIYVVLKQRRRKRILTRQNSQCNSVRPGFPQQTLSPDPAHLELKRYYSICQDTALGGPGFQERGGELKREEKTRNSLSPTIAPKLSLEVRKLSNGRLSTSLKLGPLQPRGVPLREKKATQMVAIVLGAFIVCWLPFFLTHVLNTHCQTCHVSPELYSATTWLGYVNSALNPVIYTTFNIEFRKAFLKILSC

[6] = biological target: 5-hydroxytryptamine receptor 1B (Homo sapiens, UniProt P28222); test: Inhibition of 5HT1B receptor (unknown origin); conditions: concentration not given here
Sequence of 5-hydroxytryptamine receptor 1B (P28222 whole entry): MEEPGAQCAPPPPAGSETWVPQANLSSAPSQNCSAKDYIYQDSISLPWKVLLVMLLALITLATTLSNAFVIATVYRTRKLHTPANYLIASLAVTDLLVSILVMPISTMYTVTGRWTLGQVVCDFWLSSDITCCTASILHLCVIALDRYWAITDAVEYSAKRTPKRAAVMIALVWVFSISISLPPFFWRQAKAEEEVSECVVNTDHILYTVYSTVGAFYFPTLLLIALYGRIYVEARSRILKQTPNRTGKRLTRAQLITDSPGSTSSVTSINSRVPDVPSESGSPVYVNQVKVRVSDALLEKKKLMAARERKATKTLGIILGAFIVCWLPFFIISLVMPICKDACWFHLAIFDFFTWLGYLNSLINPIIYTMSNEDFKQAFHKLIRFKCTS

[7] = biological target: 5-hydroxytryptamine receptor 1E (Homo sapiens, UniProt P28566); test: Inhibition of 5HT1E receptor (unknown origin); conditions: concentration not given here
Sequence of 5-hydroxytryptamine receptor 1E (P28566 whole entry): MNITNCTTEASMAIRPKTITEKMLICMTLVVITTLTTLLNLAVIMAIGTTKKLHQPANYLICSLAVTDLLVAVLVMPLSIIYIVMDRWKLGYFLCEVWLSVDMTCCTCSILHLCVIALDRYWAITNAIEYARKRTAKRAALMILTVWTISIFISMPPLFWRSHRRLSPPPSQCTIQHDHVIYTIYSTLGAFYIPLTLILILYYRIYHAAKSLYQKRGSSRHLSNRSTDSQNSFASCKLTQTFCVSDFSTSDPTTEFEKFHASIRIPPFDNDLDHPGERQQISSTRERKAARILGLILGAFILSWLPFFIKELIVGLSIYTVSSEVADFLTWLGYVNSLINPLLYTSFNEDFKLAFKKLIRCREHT

[8] = biological target: Alpha-2C adrenergic receptor (Homo sapiens, UniProt P18825); test: Binding affinity to alpha2c (unknown origin) assessed as inhibition constant
Sequence of Alpha-2C adrenergic receptor (P18825 whole entry): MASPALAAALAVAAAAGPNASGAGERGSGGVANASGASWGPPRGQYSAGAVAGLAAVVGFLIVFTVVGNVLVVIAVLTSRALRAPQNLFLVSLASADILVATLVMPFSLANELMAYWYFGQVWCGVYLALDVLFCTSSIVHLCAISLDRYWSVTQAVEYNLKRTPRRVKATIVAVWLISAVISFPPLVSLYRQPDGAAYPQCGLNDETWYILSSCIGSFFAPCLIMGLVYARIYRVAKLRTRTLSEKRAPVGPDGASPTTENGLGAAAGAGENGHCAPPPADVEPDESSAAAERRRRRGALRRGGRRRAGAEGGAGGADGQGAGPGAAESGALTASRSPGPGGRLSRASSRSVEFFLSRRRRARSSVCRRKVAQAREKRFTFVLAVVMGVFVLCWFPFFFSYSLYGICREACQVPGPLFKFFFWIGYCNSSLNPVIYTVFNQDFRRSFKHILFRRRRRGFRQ

[9] = biological target: Sigma intracellular receptor 2 (Homo sapiens, UniProt Q5BJF2); test: Binding affinity to sigma 2 receptor (unknown origin) assessed as inhibition constant
Sequence of Sigma intracellular receptor 2 (Q5BJF2 whole entry): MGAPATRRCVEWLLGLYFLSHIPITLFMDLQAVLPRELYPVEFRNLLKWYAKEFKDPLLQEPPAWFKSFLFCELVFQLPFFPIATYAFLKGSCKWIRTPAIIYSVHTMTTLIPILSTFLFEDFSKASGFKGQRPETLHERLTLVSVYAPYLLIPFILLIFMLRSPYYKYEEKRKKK

Sequence of D(4) dopamine receptor (P21917 whole entry): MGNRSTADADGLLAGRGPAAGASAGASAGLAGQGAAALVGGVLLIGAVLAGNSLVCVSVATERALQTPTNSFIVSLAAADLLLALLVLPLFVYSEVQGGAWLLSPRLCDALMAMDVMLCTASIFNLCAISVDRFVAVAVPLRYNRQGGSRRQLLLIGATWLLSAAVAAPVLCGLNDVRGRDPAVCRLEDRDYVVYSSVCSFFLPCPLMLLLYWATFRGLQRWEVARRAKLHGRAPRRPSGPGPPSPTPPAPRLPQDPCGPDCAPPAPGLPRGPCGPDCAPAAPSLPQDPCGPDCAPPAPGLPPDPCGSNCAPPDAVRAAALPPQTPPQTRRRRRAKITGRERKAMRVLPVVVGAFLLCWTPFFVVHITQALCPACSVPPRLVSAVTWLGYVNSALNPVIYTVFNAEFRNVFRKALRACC

Ki [1] [nM]	Ki [2] [nM]	inhibition [3] [%]	inhibition [4] [%]	inhibition ([1]; filed as agonist, concentration not given here) [%]	Ki [5] [nM]	inhibition [6] [%]	inhibition [7] [%]	Ki [8] [nM]	Ki [9] [nM]	SMILES
1840	362	< 50	< 50							COc1ccc(C2NCCc3c2[nH]c2ccc(F)cc32)c(O)c1 (configuration not stated)
	609			< 50	1250					COc1ccc(C2NCCc3c2[nH]c2ccc(Cl)cc32)c(O)c1 (configuration not stated)
		< 50				< 50	< 50	964	2330	COc1cc(OC)c(C2NCCc3c2[nH]c2ccc(F)cc32)cc1OC (configuration not stated)
